Patent publication US6433186B1, “Amidino derivatives and their use as thormbin inhibitors” (AstraZeneca AB, priority 2000, dated 2002)

Key:
[1] = Test G: Determination of in vitro Stability, human liver microsomes; assay type: in vitro ADME; conditions: liver microsomes from humans, 37° C., up to 60 minutes
Procedure: (§1) Determination of in vitro Stability
(§2) Liver microsomes were prepared from Sprague-Dawley rats and human liver samples according to internal SOPs. The compounds were incubated at 37° C. at a total microsome protein concentration of 3 mg/mL in a 0.05 mol/L TRIS buffer at pH 7.4, in the presence of the cofactors NADH (2.5 mmol/L) and NADPH (0.8 mmol/L). The initial concentration of compound was 5 or 10 μmol/L. Samples were taken for analysis up to 60 minutes after the start of the incubation. The enzymatic activity in the collected sample was immediately stopped by adding 20% […] at a volume corresponding to 3.3% of the total sample volume. The concentration of compound remaining (FINAL CONC) in the 60 min. sample was determined by means of LCMS using a sample collected at zero time as reference (START CONC). The % of degraded thrombin inhibitor was calculated as: [formula]

[2] = Test G: Determination of in vitro Stability, rat liver microsomes; assay type: in vitro ADME, Sprague-Dawley rats; conditions: liver microsomes from rats, 37° C., up to 60 minutes
Procedure: as §1, §2

[3] = Test E: Determination of Thrombin Time ex vivo (plasma concentration of thrombin inhibitor after oral or parenteral administration); assay type: in vivo, rat; conditions: conscious rats
Source text: Determination of Thrombin Time ex vivo
The inhibition of thrombin after oral or parenteral administration of the compounds of the invention, dissolved in ethanol:Solutol™:water (5:5:90), is examined in conscious rats which, one or two days prior to the experiment, are equipped with a catheter for blood sampling from the carotid artery. On the experimental day blood samples are withdrawn at fixed times after the administration of the compound into plastic tubes containing 1 part sodium citrate solution (0.13 mol per L) and 9 parts of blood. The tubes are centrifuged to obtain platelet poor plasma.
50 μL of plasma samples are precipitated with 100 μL of cold acetonitrile. The samples are centrifuged for 10 minutes at 4000 rpm. 75 μL of the supernatant is diluted with 75 μL of 0.2% formic acid. 10 μL volumes of the resulting solutions are analysed by LC-MS/MS and the concentrations of thrombin inhibitor are determined using standard curves.

| SMILES | conversion to the corresponding active inhibitor (free amidine) [1] | conversion to the corresponding active inhibitor (free amidine) [2] | oral and/or parenteral bioavailability as the corresponding active inhibitor (free amidine) [3] |
| --- | --- | --- | --- |
| CNc1cc(Cl)cc([C@@H](O)C(=O)N2CC[C@H]2C(=O)NCc2ccc(C(N)=NOC)cc2)c1 [Example 3, Ph(3-Cl)(5-NHMe)-(R)CH(OH)C(O)-(S)Aze-Pab(OMe)] | converted to the corresponding active inhibitor (free amidine) | converted to the corresponding active inhibitor (free amidine) | exhibit oral and/or parenteral bioavailability in the rat as the corresponding active inhibitor (free amidine) |
| CC(=O)Nc1cc(Cl)cc([C@@H](O)C(=O)N2CC[C@H]2C(=O)NCc2ccc(C(N)=NOC(C)C)cc2)c1 [Example 6, Ph(3-Cl)(5-NHAc)-(R)CH(OH)C(O)-(S)Aze-Pab(OiPr)] | – | – | exhibit oral and/or parenteral bioavailability in the rat as the corresponding active inhibitor (free amidine) |
